Key:
LTB4 release = test: A23187 Induced LTB4 Release; type: cell-based; details: Neutrophil; neutrophils from healthy human donors, 1 hour with test drug, 0.3 μg/ml A23187 for 10 min, LTB4 ELISA; range stated for the group of compounds tested; read-out: A123187 induced LTB4 release IC50
Method: The compounds of the present invention are tested in one or both of the assays described herein. Standard assays are used to evaluate activity of compounds in present invention on inflammatory cells. Attenuation of agonist-induced release of lipid mediator of neutrophil chemotaxis, leukotriene B4 (LTB4), is used to evaluate Inhibitory effect on neutrophils.
Venous blood was collected from healthy human donors using heparin as an anti-coagulant. Neutrophils were isolated from freshly drawn blood after dextran sedimentation and ficoll separation (Eur J Biochem. 169, 175, 1987), 180 μl of the of neutrophil suspension (0.2×10^6 cells/ml) was taken and added 19 μL of Hank's Buffer salt solution along with 1 μL of the test drug (200 times concentrated) in a 24 well plate and incubated at 37° C. for 1 hour, 3 minutes before the end of test compound incubation, 0.25 mM Ca^++/Mg^++ were added. Then, 0.3 μg/ml A23187 (Sigma Chem, USA) was added and incubated for further 10 min at 37° C. The reaction was stopped by adding 80 μL of cold methanol and centrifuged to remove cell debris (J Pharmacol Exp Ther. 297:267, 2001). The samples were analysed for LTB4 release using LTB4ELISA kits (Assay Design Inc., USA). The amount of LTB4 released was quantified and percent inhibition of LTB4 release was calculated with respect to the difference between the A23187 stimulated and negative control cells, to compute IC50 values.

recombinant 5-Lox = biological target: T1, recombinant 5-Lox (Homo sapiens, UniProt P09917); test: Assay for 5-Lipoxygenase Activity; type: biochemical; details: arachidonic acid, absorbance at 236 nm (AUC), range stated for the group of compounds tested, read-out: 5-1, poxygenase inhibition IC50
T1 sequence (P09917 1-674): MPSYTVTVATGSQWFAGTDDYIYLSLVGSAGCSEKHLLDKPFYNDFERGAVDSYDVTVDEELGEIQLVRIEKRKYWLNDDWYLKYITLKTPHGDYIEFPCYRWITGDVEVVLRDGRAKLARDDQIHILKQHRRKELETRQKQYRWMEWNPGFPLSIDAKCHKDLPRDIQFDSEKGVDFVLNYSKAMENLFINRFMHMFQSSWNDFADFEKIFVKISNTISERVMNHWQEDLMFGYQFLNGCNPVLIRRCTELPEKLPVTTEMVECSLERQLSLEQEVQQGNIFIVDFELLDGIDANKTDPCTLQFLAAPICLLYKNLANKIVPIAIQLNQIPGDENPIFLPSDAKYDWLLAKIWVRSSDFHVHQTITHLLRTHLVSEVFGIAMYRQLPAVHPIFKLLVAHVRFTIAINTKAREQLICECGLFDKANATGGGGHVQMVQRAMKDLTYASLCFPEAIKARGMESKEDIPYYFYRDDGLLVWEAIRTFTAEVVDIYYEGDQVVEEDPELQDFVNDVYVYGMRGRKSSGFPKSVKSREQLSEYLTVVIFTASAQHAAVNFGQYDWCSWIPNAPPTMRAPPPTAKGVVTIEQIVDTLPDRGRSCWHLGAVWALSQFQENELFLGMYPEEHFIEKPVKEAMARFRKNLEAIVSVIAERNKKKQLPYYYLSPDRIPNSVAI
Method: Assay for 5-Lipoxygenase Activity
In a 96 well UV-plate, 100 μl of phosphate buffer saline (PBS) containing DTT (200 μM), ATP (100 μM) and calcium chloride (100 μM) was added. To each well 0.5 μl of test drug (200 times concentrated) or vehicle was added, followed by 4 μl of recombinant 5-Lox (3 units/μl) and was incubated at 37° C. for 5 min. The reaction was initiated by adding 1 μl of 1 mM freshly prepared arachidonic acid and increase in absorbance was monitored at 236 nm for 10 min. (J Biol. Chem. 261:11512, 1986) A plot of absorbance verses time curve was prepared and area under curve (AUC) was computed for each well. Percent inhibition of AUC for different treatments was calculated with respect to the difference between the Arachidonic acid stimulated and negative control values, to compute IC50 values.

IC50 (recombinant 5-Lox) [µM]	Compound	IC50 (LTB4 release) [µM]
0.3 to 10	CC1(C)OCC(C2OC3OC(C)(C)OC3C2NC(=O)Cc2cccc(Cl)c2)O1 [Compound No. 84, 1,2;5,6-Di-O-isopropylidene-3-deoxy-3-{[(3-chlorophenyl)-methyl]carbonyl}-amino-α-D-allofuranoside]	0.13 to 30
0.3 to 10	CC1(C)OCC(C2OC3OC(C)(C)OC3C2NC(=O)Cc2ccccc2C(F)(F)F)O1 [Compound No. 80, 1,2;5,6-Di-O-isopropylidene-3-deoxy-3-{[(2-trifluoromethylphenyl)-methyl]carbonyl}-amino-α-D-allofuranoside]	0.13 to 30
0.3 to 10	CC1(C)O[C@H]2O[C@H]([C@H]3COC(C)(C)O3)[C@@H](NC(=S)Nc3ccccc3[N+](=O)[O-])[C@H]2O1 [Compound No. 67, 1,2;5,6-Di-O-isopropylidene-3-deoxy-3-{[(2-nitrophenyl)-amino]thiocarbonyl}-amino-α-D-allofuranoside]	
0.3 to 10	CC1(C)OCC(C2OC3OC(C)(C)OC3C2NC(=S)Nc2ccccc2F)O1 [Compound No. 103, 1,2;5,6-Di-O-isopropylidene-3-deoxy-3-{[(2-fluorophenyl)-amino]thiocarbonyl}-amino-α-D-glucofuranoside]	0.13 to 30
0.3 to 10	CC1(C)OCC(C2OC3OC(C)(C)OC3C2NC(=O)Cc2ccc(Cl)c(Cl)c2)O1 [Compound No. 100, 1,2;5,6-Di-O-isopropylidene-3-deoxy-3-{[(3,4-dichlorophenyl)-methyl]carbonyl}-amino-α-D-allofuranoside]	0.13 to 30
0.3 to 10	CC1(C)OCC(C2OC3OC(C)(C)OC3C2NC(=S)Nc2ccc(C#N)cc2)O1 [Compound No. 68, 1,2;5,6-Di-O-isopropylidene-3-deoxy-3-{[(4-cyanophenyl)-amino]thiocarbonyl}-amino-α-D-allofuranoside]	

More lines, now with the values behind:

Compound	IC50 (recombinant 5-Lox) [µM]	IC50 (LTB4 release) [µM]
CC1(C)OCC(C2OC3OC(C)(C)OC3C2NC(=S)Nc2ccc(F)cc2)O1 [Compound No. 101, 1,2;5,6-Di-O-isopropylidene-3-deoxy-3-{[(4-fluorophenyl)-amino]thiocarbonyl}-amino-α-D-glucofuranoside]		0.13 to 30
CC1(C)OCC(C2OC3OC(C)(C)OC3C2NC(=S)Nc2ccc(OCc3ccccc3)cc2)O1 [Compound No. 63, 1,2;5,6-Di-O-isopropylidene-3-deoxy-3-{[(4-benzyloxyphenyl)amino]thiocarbonyl}-amino-α-D-allofuranoside]	0.3 to 10	
CC1(C)O[C@H]2O[C@H]([C@H]3COC(C)(C)O3)[C@@H](NC(=S)Nc3ccc(Cl)c(Cl)c3)[C@H]2O1 [Compound No. 60, 1,2;5,6-Di-O-isopropylidene-3-deoxy-3-{[(3,4-dichlorophenyl)-amino]thiocarbonyl}-amino-α-D-allofuranoside]	0.3 to 10	
CC1(C)OCC(C2OC3OC(C)(C)OC3C2NC(=S)Nc2ccc(F)cc2)O1 [Compound No. 55, 1,2;5,6-Di-O-isopropylidene-3-deoxy-3-{[(4-fluorophenyl)-amino]thiocarbonyl}-amino-α-D-allofuranoside]	0.3 to 10	

Reference: patent US20080114031A1, “MONOSACCHARIDE DERIVATIVES” (priority 2006, published 2008)
